The values below come from patent US12568972B2, “Pyridazinol compounds and derivatives, preparation methods, herbicidal compositions and applications thereof” (Qingdao Kingagroot Chemical Compound Co., Ltd., priority 2018, dated 2026).

What all share (assay): Post-emergence test, weed control effect
What all share (format): in vivo

The subject of one assay is Galium aparine. The note with it: 504 h, after 3 weeks, fresh weight inhibition, read-out: activity level of harmful plant destruction (growth inhibition rate), Galium aparine. Put shortly:
(§1)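 Seeds are sown in soil pots and raised in the greenhouse until the 2-3 leaf stage. Plants are then sprayed with compound dissolved in acetone with Tween-80, diluted in water and supplemented with 80% vegetable oil methyl ester synergist at 1500 g/ha, and fresh weight inhibition is rated 0-10 three weeks later.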

The test system of the next assay is Chenopodiaceae. The conditions noted are these: after 3 weeks; for inhibition at 300 g/ha / inhibition at 150 g/ha: 504 h, fresh weight inhibition, read-out: activity level of harmful plant destruction (growth inhibition rate), Chenopodiaceae. Put shortly:
as §1

Another assay concerns Rorippa indica. The note with it: after 3 weeks; for inhibition at 300 g/ha / inhibition at 150 g/ha: Rorippa indica, 504 h, fresh weight inhibition, read-out: activity level of harmful plant destruction (growth inhibition rate), Rorippa indica. Put shortly: as §1
Another assay concerns Setaria viridis. The note with it: 504 h, after 3 weeks, fresh weight inhibition, read-out: activity level of harmful plant destruction (growth inhibition rate), Setaria viridis. Put shortly: as §1
Another assay relates to Amaranthus retroflexus. The conditions noted are these: after 3 weeks. Put shortly:
as §1

In the next assay the test system is Veronica polita. The conditions noted are these: after 3 weeks; for inhibition at 300 g/ha / inhibition at 150 g/ha: Veronica polita, 504 h, fresh weight inhibition, read-out: activity level of harmful plant destruction (growth inhibition rate), Veronica polita. Put shortly: as §1
A further assay relates to Echinochloa crus-galli. The note with it: 504 h, after 3 weeks, fresh weight inhibition, read-out: activity level of harmful plant destruction (growth inhibition rate), Echinochloa crus-galli. The method, boiled down: as §1

Each structure is given as a SMILES string.

A word on the inhibition: it is the percentage by which the read-out fell short of the control. With `Oc1cc(C(F)(F)F)nnc1-c1ccc(F)nc1F` [Compound 220], the inhibition at 300 g/ha in the assay on Galium aparine, with Chenopodiaceae, with Rorippa indica, with Setaria viridis, in the assay on Veronica polita and in the assay with Echinochloa crus-galli was 100% throughout. In addition, in the assay with Chenopodiaceae (dose 2000 g/ha), the “weed control effect (activity level), Chenopodiaceae” value stood at 10. Also, in the assay on Rorippa indica (dose 2000 g/ha), the “weed control effect (activity level), Rorippa indica” value was 10. In the assay on Amaranthus retroflexus (dose 2000 g/ha), the “weed control effect (activity level), Amaranthus retroflexus” value worked out at 10. The “weed control effect (activity level), Veronica polita” value in the assay with Veronica polita (dose 2000 g/ha) was found to be 10.

Take `Oc1cc(C(F)(F)F)nnc1-c1cccnc1` [Compound 202]: the inhibition at 300 g/ha in the assay with Galium aparine was 100%; in the assay with Chenopodiaceae, 100%; in the assay on Rorippa indica, 100%; with Setaria viridis, 100%; in the assay with Veronica polita, 80 to 90%; in the assay with Echinochloa crus-galli it was 70 to 80%. For the same compound, the “weed control effect (activity level), Chenopodiaceae” value with Chenopodiaceae (dose 2000 g/ha) worked out at 10. Besides, the “weed control effect (activity level), Rorippa indica” value in the assay on Rorippa indica (dose 2000 g/ha) turned out to be 10. Also, in the assay on Amaranthus retroflexus (dose 2000 g/ha), the “weed control effect (activity level), Amaranthus retroflexus” value amounted to 10. The “weed control effect (activity level), Veronica polita” value in the assay with Veronica polita (dose 2000 g/ha) was 10.

`Oc1cc(C(F)(F)F)nnc1-c1cnc(F)c(Cl)c1` [Compound 1000]: the inhibition at 300 g/ha in the assay with Galium aparine, with Chenopodiaceae, in the assay with Rorippa indica, in the assay on Setaria viridis, in the assay with Veronica polita and in the assay with Echinochloa crus-galli was 100% throughout. For the same compound, the “weed control effect (activity level), Chenopodiaceae” value in the assay on Chenopodiaceae (Dose 3000 g/ha) stood at 10. For the same compound, the “weed control effect (activity level), Rorippa indica” value with Rorippa indica (Dose 3000 g/ha) was 10. The “weed control effect (activity level), Amaranthus retroflexus” value with Amaranthus retroflexus (Dose 3000 g/ha) amounted to 10. Besides, the “weed control effect (activity level), Veronica polita” value in the assay with Veronica polita (Dose 3000 g/ha) is 10.

On to `Oc1cc(C(F)(F)F)nnc1-c1ccc(F)nc1` [Compound 207], for which the inhibition at 300 g/ha with Galium aparine, in the assay on Chenopodiaceae, in the assay with Rorippa indica, in the assay on Setaria viridis, in the assay on Veronica polita and in the assay on Echinochloa crus-galli was 100% in each case. Moreover, the “weed control effect (activity level), Chenopodiaceae” value with Chenopodiaceae (dose 2000 g/ha) was determined as 10. Moreover, the “weed control effect (activity level), Rorippa indica” value in the assay with Rorippa indica (dose 2000 g/ha) is 10. In addition, the “weed control effect (activity level), Amaranthus retroflexus” value in the assay with Amaranthus retroflexus (dose 2000 g/ha) came to 10. For the same compound, the “weed control effect (activity level), Veronica polita” value with Veronica polita (dose 2000 g/ha) was 10.

As for `Oc1cc(C(F)(F)F)nnc1-c1cnn(C(F)F)c1` [Compound 844], the inhibition at 150 g/ha in the assay with Galium aparine, in the assay with Chenopodiaceae, in the assay on Rorippa indica, in the assay with Setaria viridis, with Veronica polita and in the assay with Echinochloa crus-galli was 100% each time. Moreover, the “weed control effect (activity level), Chenopodiaceae” value in the assay on Chenopodiaceae (dose 2000 g/ha) stood at 10. In the assay with Rorippa indica (dose 2000 g/ha), the “weed control effect (activity level), Rorippa indica” value stood at 10. The “weed control effect (activity level), Amaranthus retroflexus” value in the assay on Amaranthus retroflexus (dose 2000 g/ha) is reported as 10. The “weed control effect (activity level), Veronica polita” value with Veronica polita (dose 2000 g/ha) stood at 10.

As to `N#Cc1ccccc1C(=O)Oc1cc(C(F)(F)F)nnc1-c1ccc(F)c(F)c1` [Compound 1-86], the inhibition at 150 g/ha in the assay with Galium aparine, in the assay on Chenopodiaceae, in the assay on Rorippa indica, with Setaria viridis, in the assay on Veronica polita and in the assay on Echinochloa crus-galli was 100% in each case. Also, the “weed control effect, Chenopodiaceae (activity level)” value in the assay on Chenopodiaceae (Dose 3000 g/ha) is given as 10. For the same compound, the “weed control effect, Rorippa indica (activity level)” value with Rorippa indica (Dose 3000 g/ha) was determined as 10. Also, in the assay on Amaranthus retroflexus (Dose 3000 g/ha), the “weed control effect, Amaranthus retroflexus (activity level)” value amounted to 10. In addition, in the assay on Veronica polita (Dose 3000 g/ha), the “weed control effect, Veronica polita (activity level)” value is 10.

Take `Oc1cc(C(F)(F)F)nnc1-c1ccc(C(F)(F)F)cc1F` [Compound 51]: the inhibition at 300 g/ha in the assay with Galium aparine is 80 to 90%; with Chenopodiaceae, 100%; in the assay with Rorippa indica, 100%; with Setaria viridis, 90 to 100%; in the assay with Veronica polita, 90 to 100%; in the assay with Echinochloa crus-galli, 60 to 70%. Also, the “weed control effect (activity level), Chenopodiaceae” value with Chenopodiaceae (dose 1000 g/ha) is recorded as 10. Further, the “weed control effect (activity level), Rorippa indica” value in the assay on Rorippa indica (dose 1000 g/ha) is 10. In the assay with Amaranthus retroflexus (dose 1000 g/ha), the “weed control effect (activity level), Amaranthus retroflexus” value came out at 10. Also, in the assay with Veronica polita (dose 1000 g/ha), the “weed control effect (activity level), Veronica polita” value is recorded as 10.

`CCCSC(=O)Oc1cc(C(F)(F)F)nnc1-c1ccc(F)cc1` [Compound 1-43]: the inhibition at 150 g/ha in the assay on Galium aparine, with Chenopodiaceae, with Rorippa indica, in the assay on Setaria viridis, in the assay on Veronica polita and with Echinochloa crus-galli was 100% each time. Moreover, the “weed control effect, Chenopodiaceae (activity level)” value in the assay on Chenopodiaceae (Dose 3000 g/ha) amounted to 10. Also, the “weed control effect, Rorippa indica (activity level)” value in the assay on Rorippa indica (Dose 3000 g/ha) was determined as 10. In addition, in the assay with Amaranthus retroflexus (Dose 3000 g/ha), the “weed control effect, Amaranthus retroflexus (activity level)” value is given as 10. Moreover, in the assay with Veronica polita (Dose 3000 g/ha), the “weed control effect, Veronica polita (activity level)” value was 10.

In the case of `Oc1cc(C(F)(F)F)nnc1-c1cccnc1F` [Compound 733], the inhibition at 300 g/ha in the assay with Galium aparine, with Chenopodiaceae, in the assay on Rorippa indica, in the assay on Setaria viridis, with Veronica polita and with Echinochloa crus-galli was 100% in each case. Further, the “weed control effect (activity level), Chenopodiaceae” value in the assay with Chenopodiaceae (dose 1000 g/ha) amounted to 10. Moreover, the “weed control effect (activity level), Rorippa indica” value with Rorippa indica (dose 1000 g/ha) amounted to 10. Also, the “weed control effect (activity level), Amaranthus retroflexus” value in the assay with Amaranthus retroflexus (dose 1000 g/ha) amounted to 10. For the same compound, the “weed control effect (activity level), Veronica polita” value in the assay with Veronica polita (dose 1000 g/ha) is 10.

Consider `Oc1cc(C(F)(F)F)nnc1-c1ccc(F)c(Cl)c1` [Compound 740], for which the inhibition at 300 g/ha with Galium aparine, in the assay with Chenopodiaceae, in the assay on Rorippa indica, in the assay on Setaria viridis, with Veronica polita and in the assay on Echinochloa crus-galli was 100% throughout. In the assay on Chenopodiaceae (Dose 3000 g/ha), the “weed control effect (activity level), Chenopodiaceae” value is reported as 10. In addition, in the assay with Rorippa indica (Dose 3000 g/ha), the “weed control effect (activity level), Rorippa indica” value came out at 10. Moreover, the “weed control effect (activity level), Amaranthus retroflexus” value in the assay on Amaranthus retroflexus (Dose 3000 g/ha) is listed as 10. Moreover, the “weed control effect (activity level), Veronica polita” value with Veronica polita (Dose 3000 g/ha) stood at 10.

Regarding `Oc1cc(C(F)(F)F)nnc1-c1ccnc(F)c1` [Compound 206], the inhibition at 300 g/ha in the assay with Galium aparine, in the assay on Chenopodiaceae, in the assay on Rorippa indica, in the assay on Setaria viridis, in the assay on Veronica polita and in the assay with Echinochloa crus-galli was 100% throughout. The “weed control effect (activity level), Chenopodiaceae” value with Chenopodiaceae (dose 2000 g/ha) was 10. The “weed control effect (activity level), Rorippa indica” value in the assay with Rorippa indica (dose 2000 g/ha) is 10. Also, the “weed control effect (activity level), Amaranthus retroflexus” value with Amaranthus retroflexus (dose 2000 g/ha) is 10. In addition, the “weed control effect (activity level), Veronica polita” value with Veronica polita (dose 2000 g/ha) was determined as 10.

Consider `Cc1cc(-c2nnc(C(F)(F)F)cc2O)n(C)n1` [Compound 779], for which the inhibition at 300 g/ha in the assay on Galium aparine, in the assay on Chenopodiaceae, with Rorippa indica, with Setaria viridis, with Veronica polita and in the assay with Echinochloa crus-galli was 100% each time. The “weed control effect (activity level), Chenopodiaceae” value with Chenopodiaceae (Dose 3000 g/ha) worked out at 10. The “weed control effect (activity level), Rorippa indica” value with Rorippa indica (Dose 3000 g/ha) turned out to be 10. Further, the “weed control effect (activity level), Amaranthus retroflexus” value in the assay with Amaranthus retroflexus (Dose 3000 g/ha) came out at 10. For the same compound, in the assay on Veronica polita (Dose 3000 g/ha), the “weed control effect (activity level), Veronica polita” value stood at 10.

Turning to `Oc1cc(C(F)(F)F)nnc1-c1ccc(F)cc1` [Compound 32], the inhibition at 300 g/ha in the assay on Galium aparine, in the assay on Chenopodiaceae, in the assay on Rorippa indica, in the assay with Setaria viridis, in the assay on Veronica polita and in the assay on Echinochloa crus-galli was 100% in each case. Besides, the “weed control effect (activity level), Chenopodiaceae” value in the assay with Chenopodiaceae (dose 1000 g/ha) was 10. The “weed control effect (activity level), Rorippa indica” value in the assay with Rorippa indica (dose 1000 g/ha) amounted to 10. Further, the “weed control effect (activity level), Amaranthus retroflexus” value in the assay with Amaranthus retroflexus (dose 1000 g/ha) came out at 10. For the same compound, in the assay with Veronica polita (dose 1000 g/ha), the “weed control effect (activity level), Veronica polita” value turned out to be 10.

For `Oc1cc(C(F)(F)F)nnc1-c1ccc(Cl)cc1` [Compound 739], the inhibition at 300 g/ha is 80 to 90% with Galium aparine; 100% with Chenopodiaceae; 100% in the assay on Rorippa indica; 100% with Setaria viridis; 100% with Veronica polita; 100% in the assay on Echinochloa crus-galli. Also, the “weed control effect (activity level), Chenopodiaceae” value in the assay with Chenopodiaceae (Dose 3000 g/ha) was determined as 10. Also, the “weed control effect (activity level), Rorippa indica” value in the assay on Rorippa indica (Dose 3000 g/ha) turned out to be 10. Further, the “weed control effect (activity level), Amaranthus retroflexus” value in the assay with Amaranthus retroflexus (Dose 3000 g/ha) stood at 10. For the same compound, in the assay with Veronica polita (Dose 3000 g/ha), the “weed control effect (activity level), Veronica polita” value is on record as 10.
